From EP0476645B1, “Calcium uptake inhibitors” (MERRELL DOW PHARMACEUTICALS INC., priority 1990, dated 1992)

Legend:
Rat PMNL [1] = assay: Superoxide anion (SOA) production by stimulated PMNL; assay type: cell-based; conditions: for inhibition of superoxide anion production: PMA and OZ stimulus, result in words; for inhibition at 1 µM / inhibition at 3 µM / inhibition at 10 µM / inhibition at 30 µM / inhibition at 100 µM: Rattus norvegicus, PMNL, inhibition of superoxide anion production; for inhibition at 1 µM: 1 µM compound; for inhibition at 3 µM: 3 µM compound; for inhibition at 10 µM: 10 µM compound; for inhibition at 30 µM: 30 µM compound; for inhibition at 100 µM: 100 µM compound
Procedure: (§1) Rat PMNL were obtained from exudates resulting from peritoneal injection of 6 mL of 8% sodium caseinate. Eighteen hours after injection rats were killed by carbon dioxide inhalation and the peritoneal cavity lavaged with Hank's balanced salt solution (HBSS). After concentration of the PMNL by centrifugation, contaminating erythrocytes were removed by hypotonic lysis. The PMNL were then washed twice by centrifugation (400 x g for 10 minutes) and resuspended in HBSS. Cell viability was greater than 90% by Trypan Blue exclusion and greater than 90% of the cells were PMNL by Wright-Giemsa stain.
Aliquots (50 µl) of a rat PMNL suspension (2 x 10⁷ cells/mL in HBSS) were incubated with 50 µl of HBSS containing vehicle (0.3% DMSO) or compound for 30 minutes at 37°C as above. One hundred microliters of buffer containing 5.98 mg/mL of cytochrome C (Sigma Type III) and 0.1 mg/mL catalase, plus the compounds where appropriate, were then added to each sample. A blank for spectrophotometric measurement, containing unstimulated cells in the presence of cytochrome C, catalase and SOD, was also prepared. To activate the PMNL, 75 µl of PMA or OZ were added to achieve the final concentration of cell activator (plus vehicle or inhibitor as described above for MPO release) and the cells further incubated at 37°C for 60 minutes. The activation was terminated by centrifugation at 600 x g for 5 minutes at 4°C. Aliquots (200 µl) of supernatant were then transferred to a second, flat-well microtiter plate and measured spectrophotometrically at 550 nm. […]

Rat PMNL [2] = assay: Myeloperoxidase (MPO) release from stimulated PMNL; assay type: cell-based; conditions: for inhibition at 1 µM / inhibition at 3 µM / inhibition at 10 µM / inhibition at 30 µM / inhibition at 100 µM: Rattus norvegicus, PMNL, inhibition of MPO release; for inhibition at 1 µM: 1 µM compound; for inhibition at 3 µM: 3 µM compound; for inhibition at 10 µM: 10 µM compound; for inhibition at 30 µM: 30 µM compound; for inhibition at 100 µM: 100 µM compound; for inhibition of release of myeloperoxidase: fMLP with cytochalasin B, opsonized zymosan or ionomycin stimulus, result in words
Procedure: as §1
MPO release was determined using the MPO catalyzed oxidation of o-dianisidine. The experiments were carried out in 96-well microtiter plates (Webster and Henson, 1978). In each well, 50 microliter (µl) aliquots of a PMNL suspension (2 x 10⁷ cells/mL in HBSS) were incubated with 50 µl of HBSS containing vehicle (0.3% DMSO) or inhibitor for 30 minutes at 37°C. The final DMSO concentration never exceeded 0.3% and was constant throughout each experiment. To activate the PMNL, 50 µl of one of the following were added for 30 minutes at 37°C: N-formyl-Met-Leu-Phe (fMLP; 0.1 µM); phorbol myristate acetate (PMA, 200 ng/mL); or rat serum opsonized zymosan (OZ; 2.6 mg/mL, prepared by the method of Ward et al., 1983). The stimuli were added in 50 µl HBSS which also contained the compounds or vehicle, as appropriate, to avoid changing the inhibitor concentration. Cell activation was terminated by centrifugation of the plates at 600 x g for 5 minutes at 22°C. Aliquots (100 µl) of supernatant were removed from each well and transferred to a 96-well flatbottomed microtiter plate for the MPO assay. To each aliquot of supernatant was added 100 µl of a freshly prepared solution containing 50 µl of 0.2 M sodium phosphate buffer (pH 6.2), 25 µl of 3.9 mM o-dianisidine and 25 µl of 0.015 M hydrogen peroxide. Blanks were obtained using the same solution without hydrogen peroxide. The plates were mixed and then incubated at room temperature in the dark for about 15 minutes. Absorbances of the samples were measured at 450 nm.
Rat PMNL were isolated in HBSS containing Ca⁺². As summarized in the figures below, fMLP stimulation of rat PMNL in the presence of cytochalasin B or with opsonized zymosan or with ionomycin results in the release of myeloperoxidase (fMLP/MPO, OZ/MPO, and ION/MPO; columns 2, 4, and 6 respectively).

[3] = PMA stimulus, read-out: PMA/SOA
[4] = opsonized zymosan stimulus, read-out: OZ/SOA
[5] = fMLP stimulus in the presence of cytochalasin B, read-out: IMLP/MPO
[6] = ionomycin stimulus, read-out: ION/MPO
[7] = opsonized zymosan stimulus, read-out: OZ/MPO

SMILES | inhibition of superoxide anion production (Rat PMNL [1]) | inhibition at 1 µM (Rat PMNL [1]; [3]) [%] | inhibition at 3 µM (Rat PMNL [1]; [3]) [%] | inhibition at 10 µM (Rat PMNL [1]; [3]) [%] | inhibition at 30 µM (Rat PMNL [1]; [3]) [%] | inhibition at 100 µM (Rat PMNL [1]; [3]) [%] | inhibition at 1 µM (Rat PMNL [1]; [4]) [%] | inhibition at 3 µM (Rat PMNL [1]; [4]) [%] | inhibition at 10 µM (Rat PMNL [1]; [4]) [%] | inhibition at 30 µM (Rat PMNL [1]; [4]) [%] | inhibition at 100 µM (Rat PMNL [1]; [4]) [%] | inhibition at 1 µM (Rat PMNL [2]; [5]) [%] | inhibition at 3 µM (Rat PMNL [2]; [5]) [%] | inhibition at 10 µM (Rat PMNL [2]; [5]) [%] | inhibition at 30 µM (Rat PMNL [2]; [5]) [%] | inhibition at 100 µM (Rat PMNL [2]; [5]) [%] | inhibition at 1 µM (Rat PMNL [2]; [6]) [%] | inhibition at 3 µM (Rat PMNL [2]; [6]) [%] | inhibition at 10 µM (Rat PMNL [2]; [6]) [%] | inhibition at 30 µM (Rat PMNL [2]; [6]) [%] | also measured
O=C(C#Cc1ccncc1)c1ccccc1 [MDL 101,098, 1-Phenyl-3-(4-pyridinyl)-2-propyne-1-one] | inhibited in a dose dependent fashion | -30.7 | -4.3 | 29.1 | 70 | 97.2 | -18 | -7.5 | 20.3 | 61.5 | 115 | 2.9 | 7.5 | 34.9 | 80.8 | 96.2 | -2.8 | 0 | 5.7 | 12.7 | inhibition at 100 µM (Rat PMNL [2]; [6]): 88.4%; inhibition at 1 µM (Rat PMNL [2]; [7]): 5.4%; inhibition at 3 µM (Rat PMNL [2]; [7]): 14.7%; inhibition at 10 µM (Rat PMNL [2]; [7]): 48.7%; inhibition at 30 µM (Rat PMNL [2]; [7]): 92.2%; inhibition at 100 µM (Rat PMNL [2]; [7]): 97.2%; inhibition of release of myeloperoxidase (Rat PMNL [2]): dose dependent inhibition
CN(C)c1ccc(C(=O)C#Cc2ccncc2)cc1 [MDL 102,175, 1-(4-Dimethylaminophenyl)-3-(4-pyridinyl)-2-propyne-1-one] | inhibited in a dose dependent fashion | -20.2 | 13.5 | 49.7 | 77.7 | 100 | -15 | 15.4 | 44.1 | 75.7 | 89.8 | 12.6 | 27.9 | 70.6 | 104 | 113 | 0.8 | 1.5 | 21.3 | 20.5 | inhibition at 100 µM (Rat PMNL [2]; [6]): 83.4%; inhibition at 1 µM (Rat PMNL [2]; [7]): 16.9%; inhibition at 3 µM (Rat PMNL [2]; [7]): 26.6%; inhibition at 10 µM (Rat PMNL [2]; [7]): 78.5%; inhibition at 30 µM (Rat PMNL [2]; [7]): 107%; inhibition at 100 µM (Rat PMNL [2]; [7]): 118%; inhibition of release of myeloperoxidase (Rat PMNL [2]): dose dependent inhibition
